In the supplement of paper PMC10307832:

Columns and labels:
Experiment in all cases: relative viability (nuclei count vs DMSO), 5 days (fraction); higher = more cells survive
Decitabine + Crizotinib = compound: Nc1ncn([C@H]2C[C@H](O)[C@@H](CO)O2)c(=O)n1 [Decitabine] + C[C@@H](Oc1cc(-c2cnn(C3CCNCC3)c2)cnc1N)c1c(Cl)ccc(F)c1Cl [Crizotinib] (partner 1 µM)
How it was run: (§1)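 Each reported value is a median over duplicate plates. It expresses relative viability: treated-well nuclei count divided by vehicle-well nuclei count. Lung cancer cell lines in 1536-well plates were dosed by pin tool a day after seeding, alone with one drug or with a fixed anchor-drug dose plus five library-drug doses (not always all listed) in √10 steps, and nuclei were counted after 5 days.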

Cediranib + Luminespib = compound: COc1cc2c(Oc3ccc4[nH]c(C)cc4c3F)ncnc2cc1OCCCN1CCCC1 [Cediranib] + CCNC(=O)c1noc(-c2cc(C(C)C)c(O)cc2O)c1-c1ccc(CN2CCOCC2)cc1 [Luminespib] (partner 0.01 µM)
How it was run: as §1

Decitabine + Foretinib = compound: Nc1ncn([C@H]2C[C@H](O)[C@@H](CO)O2)c(=O)n1 [Decitabine] + COc1cc2c(Oc3ccc(NC(=O)C4(C(=O)Nc5ccc(F)cc5)CC4)cc3F)ccnc2cc1OCCCN1CCOCC1 [Foretinib] (partner 0.25 µM)
How it was run: as §1

Row | Cell Line | relative viability (Decitabine + Crizotinib; first compound 0.04 µM) | relative viability (Decitabine + Crizotinib; first compound 0.1265 µM) | relative viability (Decitabine + Crizotinib; first compound 0.4 µM) | relative viability (Decitabine + Crizotinib; first compound 1.265 µM) | relative viability (Decitabine + Crizotinib; first compound 4 µM) | relative viability (Cediranib + Luminespib; first compound 0.04 µM) | relative viability (Cediranib + Luminespib; first compound 0.1265 µM) | relative viability (Cediranib + Luminespib; first compound 0.4 µM) | relative viability (Cediranib + Luminespib; first compound 1.265 µM) | relative viability (Cediranib + Luminespib; first compound 4 µM) | relative viability (Decitabine + Foretinib; first compound 0.04 µM) | relative viability (Decitabine + Foretinib; first compound 0.1265 µM) | relative viability (Decitabine + Foretinib; first compound 0.4 µM) | relative viability (Decitabine + Foretinib; first compound 1.265 µM) | relative viability (Decitabine + Foretinib; first compound 4 µM)
1 | EMC-BAC-2 | 0.64 | 0.656 | 0.454 | 0.483 | 0.402 | 1.15 | 1.3 | 1.13 | 1.18 | 1.16 | 0.936 | 0.861 | 0.762 | 0.66 | 0.588
2 | EPLC-272H | 0.587 | 0.587 |  | 0.414 | 0.402 | 0.32 |  | 0.243 |  | 0.228 |  | 0.611 | 0.0722 | 0.304 | 0.35
3 | H3255 | 0.417 | 0.82 | 0.419 | 0.537 | 0.484 | 0.83 |  | 0.879 | 0.709 | 0.992 |  | 0.652 | 0.484 | 0.587 | 0.513
4 | HARA | 0.774 | 0.745 | 0.63 | 0.379 | 0.352 | 0.822 |  | 0.528 | 0.775 | 1.09 | 0.641 | 0.558 | 0.387 | 0.215 | 0.165
5 | HCC-15 | 0.705 | 0.643 | 0.333 | 0.412 | 0.355 | 0.188 |  | 0.261 | 0.225 | 0.425 | 0.939 | 0.957 | 0.542 | 0.56 | 0.434
6 | HCC-827 |  | 0.396 | 0.355 | 0.262 | 0.272 | 0.724 |  | 0.541 | 0.5 | 0.439 | 0.351 | 0.383 | 0.333 | 0.3 | 0.279
7 | HOP-62 | 0.421 | 0.318 | 0.149 | 0.117 | 0.133 | 1.01 |  | 0.79 | 0.949 | 0.94 | 0.773 | 0.53 | 0.315 | 0.197 | 0.218
8 | LC-2-ad | 0.391 | 0.371 | 0.34 | 0.262 | 0.283 | 1.05 | 1.06 | 0.99 | 1.08 | 0.772 | 0.68 | 0.889 | 0.794 | 0.557 | 0.516
9 | LCLC-97TM1 | 0.155 | 0.16 | 0.18 | 0.15 | 0.101 | 0.918 | 0.776 | 0.787 | 0.771 | 0.842 | 0.583 | 0.728 | 0.418 | 0.256 | 0.177
10 | LCLC-103H | 1.01 | 1.02 | 0.78 | 0.82 | 0.79 | 0.931 | 1.05 | 0.952 | 1 | 0.894 | 0.945 | 0.807 | 0.717 | 0.636 | 0.519
11 | LK-2 |  | 0.219 | 0.262 | 0.265 | 0.219 | 0.217 | 0.16 | 0.196 | 0.159 | 0.188 | 1.45 | 1.38 | 0.849 | 0.39 | 0.381
12 | LOU-NH91 | 0.509 | 0.683 | 0.615 | 0.613 | 0.656 | 0.354 | 0.272 | 0.286 | 0.314 | 0.338 | 0.56 | 0.913 | 0.726 | 0.739 | 0.756
13 | LU99A | 0.517 | 0.491 | 0.631 | 0.439 | 0.317 | 0.301 | 0.255 | 0.252 | 0.269 | 0.256 | 0.766 | 0.814 | 0.874 | 0.625 | 0.486
14 | LXF-289 | 0.579 | 0.557 | 0.432 | 0.341 | 0.308 | 0.719 | 0.52 | 0.587 | 0.7 | 0.55 | 0.713 | 0.541 | 0.399 | 0.289 | 0.269
15 | NCI-H23 | 0.338 | 0.373 | 0.21 | 0.175 | 0.163 | 0.192 | 0.218 | 0.213 | 0.253 | 0.238 | 0.692 | 0.533 | 0.393 | 0.39 | 0.359
16 | NCI-H322M | 0.724 | 0.661 | 0.673 | 0.36 | 0.363 | 0.982 | 1.15 | 0.826 | 0.831 | 0.771 | 0.818 | 0.872 | 0.669 | 0.485 | 0.473
17 | NCI-H358 | 0.385 | 0.39 | 0.246 | 0.192 | 0.161 | 0.257 | 0.426 | 0.381 | 0.328 | 0.364 | 0.53 | 0.406 | 0.274 | 0.142 | 0.136
18 | NCI-H441 | 0.361 | 0.224 | 0.223 | 0.188 | 0.184 | 0.471 |  | 0.273 | 0.341 | 0.279 | 0.396 | 0.401 | 0.347 | 0.25 | 0.325
19 | NCI-H460 | 0.524 | 0.623 | 0.22 | 0.186 | 0.126 | 0.0397 | 0.0286 | 0.0301 | 0.0321 | 0.0373 | 0.948 | 0.816 | 0.619 | 0.43 | 0.193
20 | NCI-H520 | 0.654 | 0.544 | 0.399 | 0.308 | 0.26 | 0.251 | 0.262 | 0.188 | 0.2 | 0.308 | 0.732 | 0.691 | 0.584 | 0.387 | 0.343
21 | NCI-H596 | 0.939 | 1.02 | 0.353 | 0.772 | 0.755 | 0.709 | 1.06 | 0.98 |  | 0.955 | 0.764 | 0.819 |  | 0.625 | 0.582
22 | NCI-H647 | 0.852 | 0.704 | 0.549 | 0.211 | 0.174 | 0.13 | 0.308 | 0.174 | 0.157 | 0.212 | 0.966 | 0.919 | 0.509 | 0.35 | 0.234
23 | NCI-H650 | 0.533 | 0.524 | 0.303 | 0.264 | 0.195 | 0.842 | 0.831 | 0.763 | 1.02 | 0.774 | 0.929 | 0.667 | 0.506 | 0.363 | 0.319
